Assay results taken from patent publication US4659726A, “Novel 4,5-Bis (4-methoxyphenyl)-2-(pyrrol-2-yl) thiazoles and pharmaceutical composition containing the same” (Kanebo, Ltd., priority 1984, dated 1987).
Structures can show the parent of a compound that is named as a salt. Where two headings read alike, the source gives them in different places.

Experiments:
[1] = tested on: Platelet aggregation (arachidonate); test: Platelet aggregation inhibitory activity, ex vivo after oral administration to guinea pigs, sodium arachidonate as aggregating agent; type: in vivo, Hartley strain male guinea pigs; conditions: Cavia porcellus, read-out: Platelet aggregation inhibitory activity Arachidonate ED50
Protocol: (§1) Hartley strain male guinea pigs (weighing 300-350 g, one group: three animals) were fasted overnight, and to the animals were orally administered a solution or suspension of the test compounds in corn oil-10% arabic gum. […] The citrated blood thus obtained was centrifuged at 1,700 rpm for 10 minutes, and a platelet-rich plasma (PRP) was obtained from the supernatant. After isolating PRP, the remaining blood was further centrifuged at 3,000 rpm for 10 minutes, and a platelet-poor plasma (PPP) was obtained from the supernatant.
(§2) The PRP (450 μl) thus obtained was incubated at 37° C. for 3 minutes, and thereto was added 1.0 mM sodium arachidonate (50 μl) as an aggregating agent, and then the platelet aggregation thereof was measured with Platelet Aggregation Profiler® (Model PAP-3, manufactured by Bio Data Corp.) while using the PPP obtained above as a blank. As a control, as to animals to which no test compound was administered, the platelet aggregation rate was measured likewise.
(§3) The platelet aggregation inhibitory rate was calculated by the following equation. [formula]

[2] = tested on: Platelet aggregation (collagen); test: Platelet aggregation inhibitory activity, ex vivo after oral administration to guinea pigs, collagen as aggregating agent; type: in vivo, Hartley strain male guinea pigs; conditions: Cavia porcellus, read-out: Platelet aggregation inhibitory activity Collagen ED50
Protocol: as §1, §2, §3
Moreover, the above method was repeated except that 100 μg/ml collagen suspension (50 μl) was used as an aggregating agent instead of sodium arachidonate.

in vivo = conditions: mouse, oral, ddy male mice, deaths counted at 10 days, Weil method, read-out: Acute toxicity LD50
Description: ddy male mice (weighing 18-23 g, one group: 5 animals) were fasted overnight, and thereto was orally administered a suspension of the test compounds in 1% arabic gum solution.

[3] = oral, guinea pig, blood collected after 3 hours, 1.0 mM sodium arachidonate (50 μl), 50% inhibitory rate
[4] = oral, guinea pig, blood collected after 3 hours, 100 μg/ml collagen suspension (50 μl), 50% inhibitory rate

Row | Compound | ED50 ([1]; po, 3 h) [mg/kg] | ED50 ([2]; po, 3 h) [mg/kg] | LD50 at 240 h (in vivo) [mg/kg] | ED50 [1, 3] [mg/kg] | ED50 [2, 4] [mg/kg]
1 | CC(=O)Oc1ccccc1C(=O)O [Aspirin, reference compound] | 38.2 | 58.9 | 1060 |  | 
2 | COc1ccc(-c2nc(C(F)(F)F)sc2-c2ccc(OC)cc2)cc1 [Compd. A, 4,5-bis(4-methoxyphenyl)-2-trifluoromethylthiazole, reference compound] |  |  | > 3000 | 0.54 | 1.29
3 | COc1ccc(-c2nc(-c3ccc(F)cc3)sc2-c2ccc(OC)cc2)cc1 [Compd. B, 4,5-bis(4-methoxyphenyl)-2-(4-fluorophenyl)thiazole, reference compound] |  |  | > 3000 | 1.24 | 1.2
4 | COc1ccc(-c2nc(-c3cccn3C)[nH]c2-c2ccc(OC)cc2)cc1 [Compd. C, 4,5-bis(4-methoxyphenyl)-2-(1-methylpyrrol-2-yl)imidazole, reference compound] |  |  | > 3000 | 1.21 | 2.51
5 | CCn1cccc1-c1nc(-c2ccc(OC)cc2)c(-c2ccc(OC)cc2)s1 [Ex. 1, 4,5-Bis(4-methoxyphenyl)-2-(1-ethylpyrrol-2-yl)-thiazole] |  |  | > 3000 | 0.47 | 0.91
6 | COc1ccc(-c2nc(-c3cccn3C(C)C)sc2-c2ccc(OC)cc2)cc1 [Ex. 2, 4,5-Bis(4-methoxyphenyl)-2-(1-isopropylpyrrol-2-yl)thiazole] |  |  | > 3000 | 0.29 | 0.63
7 | CCCn1cccc1-c1nc(-c2ccc(OC)cc2)c(-c2ccc(OC)cc2)s1 [Ex. 3, 4,5-Bis(4-methoxyphenyl)-2-(1-n-propylpyrrol-2-yl)thiazole] |  |  | > 3000 | 0.32 | 0.52
8 | COc1ccc(-c2nc(-c3cccn3CC(C)C)sc2-c2ccc(OC)cc2)cc1 [Ex. 4, 4,5-Bis(4-methoxyphenyl)-2-(1-isobutylpyrrol-2-yl)thiazole] |  |  | > 3000 | 0.41 | 0.78
9 | C=CCn1cccc1-c1nc(-c2ccc(OC)cc2)c(-c2ccc(OC)cc2)s1 [Ex. 5, 4,5-Bis(4-methoxyphenyl)-2-(1-allylpyrrol-2-yl)-thiazole] |  |  | > 3000 | 0.4 | 0.55
10 | C#CCn1cccc1-c1nc(-c2ccc(OC)cc2)c(-c2ccc(OC)cc2)s1 [Ex. 6, 4,5-Bis(4-methoxyphenyl)-2-(1-propargylpyrrol-2-yl)thiazole] |  |  | > 3000 | 0.22 | 0.92
11 | COc1ccc(-c2nc(-c3cccn3CC(F)(F)F)sc2-c2ccc(OC)cc2)cc1 [Ex. 7, 4,5-Bis(4-methoxyphenyl)-2-[1-(2,2,2-trifluoroethyl)pyrrol-2-yl]thiazole] |  |  | > 3000 | 0.47 | 0.51
12 | COC(=O)Cn1cccc1-c1nc(-c2ccc(OC)cc2)c(-c2ccc(OC)cc2)s1 [Ex. 13, methyl 2-[4,5-bis(4-methoxyphenyl)thiazol-2-yl]pyrrole-1-acetate] |  |  | > 3000 | 0.26 | 0.89
13 | CCOC(=O)Cn1cccc1-c1nc(-c2ccc(OC)cc2)c(-c2ccc(OC)cc2)s1 [Ex. 14, ethyl 2-[4,5-bis(4-methoxyphenyl)thiazol-2-yl]pyrrole-1-acetate] |  |  | > 3000 | 0.088 | 0.19
14 | CCCOC(=O)Cn1cccc1-c1nc(-c2ccc(OC)cc2)c(-c2ccc(OC)cc2)s1 [Ex. 15, n-Propyl 2-[4,5-bis(4-methoxyphenyl)thiazol-2-yl]-pyrrole-1-acetate] |  |  | > 3000 | 0.072 | 0.11
15 | COc1ccc(-c2nc(-c3cccn3CC(=O)OC(C)C)sc2-c2ccc(OC)cc2)cc1 [Ex. 16, isopropyl 2-[4,5-bis(4-methoxyphenyl)thiazol-2-yl]pyrrole-1-acetate] |  |  | > 3000 | 0.061 | 0.11
16 | CCCCOC(=O)Cn1cccc1-c1nc(-c2ccc(OC)cc2)c(-c2ccc(OC)cc2)s1 [Ex. 17, n-Butyl 2-[4,5-bis(4-methoxyphenyl)thiazol-2-yl]-pyrrole-1-acetate] |  |  | > 3000 | 0.15 | 0.19
17 | COc1ccc(-c2nc(-c3cccn3CC(=O)OCC(C)C)sc2-c2ccc(OC)cc2)cc1 [Ex. 18, Isobutyl 2-[4,5-bis(4-methoxyphenyl)thiazol-2-yl]-pyrrole-1-acetate] |  |  | > 3000 | 0.072 | 0.12

Row | Compound | ED50 ([1]; po, 3 h) [mg/kg] | ED50 ([2]; po, 3 h) [mg/kg] | LD50 at 240 h (in vivo) [mg/kg] | ED50 [1, 3] [mg/kg] | ED50 [2, 4] [mg/kg]
18 | CCC(C)OC(=O)Cn1cccc1-c1nc(-c2ccc(OC)cc2)c(-c2ccc(OC)cc2)s1 (centres unmarked) [Ex. 19, sec-Butyl 2-[4,5-bis(4-methoxyphenyl)thiazol-2-yl]pyrrole-1-acetate] |  |  | > 3000 | 0.12 | 0.11
19 | CCCCCOC(=O)Cn1cccc1-c1nc(-c2ccc(OC)cc2)c(-c2ccc(OC)cc2)s1 [Ex. 20, n-pentyl 2-[4,5-bis(4-methoxyphenyl)thiazol-2-yl]pyrrole-1-acetate] |  |  | > 3000 | 0.28 | 0.49
20 | COc1ccc(-c2nc(-c3cccn3CC(=O)OCCC(C)C)sc2-c2ccc(OC)cc2)cc1 [Ex. 21, Isopentyl 2-[4,5-bis(4-methoxyphenyl)thiazol-2-yl]pyrrole-1-acetate] |  |  | > 3000 | 0.12 | 0.22
21 | COc1ccc(-c2nc(-c3cccn3CC(=O)OCC(C)(C)C)sc2-c2ccc(OC)cc2)cc1 [Ex. 22, Neopentyl 2-[4,5-bis(4-methoxyphenyl)thiazol-2-yl]pyrrole-1-acetate] |  |  | > 3000 | 0.11 | 0.4
22 | CCC(C)COC(=O)Cn1cccc1-c1nc(-c2ccc(OC)cc2)c(-c2ccc(OC)cc2)s1 (centres unmarked) [Ex. 23, 2-methyl-1-butyl 2-[4,5-bis(4-methoxyphenyl)thiazol-2-yl]pyrrole-1-acetate] |  |  | > 3000 | 0.073 | 0.14
23 | CCCC(C)OC(=O)Cn1cccc1-c1nc(-c2ccc(OC)cc2)c(-c2ccc(OC)cc2)s1 (centres unmarked) [Ex. 24, 2-pentyl 2-[4,5-bis(4-methoxyphenyl)thiazol-2-yl]pyrrole-1-acetate] |  |  | > 3000 | 0.12 | 0.22
24 | CCC(CC)OC(=O)Cn1cccc1-c1nc(-c2ccc(OC)cc2)c(-c2ccc(OC)cc2)s1 [Ex. 25, 3-pentyl 2-[4,5-bis(4-methoxyphenyl)thiazol-2-yl]pyrrole-1-acetate] |  |  | > 3000 | 0.12 | 0.34
25 | COc1ccc(-c2nc(-c3cccn3CC(=O)OC(C)C(C)C)sc2-c2ccc(OC)cc2)cc1 (centres unmarked) [Ex. 26, 3-methyl-2-butyl 2-[4,5-bis(4-methoxyphenyl)thiazol-2-yl]pyrrole-1-acetate] |  |  | > 3000 | 0.26 | 0.34
26 | CCCCCCOC(=O)Cn1cccc1-c1nc(-c2ccc(OC)cc2)c(-c2ccc(OC)cc2)s1 [Ex. 27, n-hexyl 2-[4,5-bis(4-methoxyphenyl)thiazol-2-yl]pyrrole-1-acetate] |  |  | > 3000 | 0.21 | 0.22
27 | CCCCCCCCOC(=O)Cn1cccc1-c1nc(-c2ccc(OC)cc2)c(-c2ccc(OC)cc2)s1 [Ex. 28, n-octyl 2-[4,5-bis(4-methoxyphenyl)thiazol-2-yl]pyrrole-1-acetate] |  |  | > 3000 | 0.39 | 0.44
28 | C=CCOC(=O)Cn1cccc1-c1nc(-c2ccc(OC)cc2)c(-c2ccc(OC)cc2)s1 [Ex. 29, allyl 2-[4,5-bis(4-methoxyphenyl)thiazol-2-yl]pyrrole-1-acetate] |  |  | > 3000 | 0.047 | 0.11
29 | C#CCOC(=O)Cn1cccc1-c1nc(-c2ccc(OC)cc2)c(-c2ccc(OC)cc2)s1 [Ex. 30, Propargyl 2-[4,5-bis(4-methoxyphenyl)thiazol-2-yl]pyrrole-1-acetate] |  |  | > 3000 | 0.039 | 0.068
30 | COc1ccc(-c2nc(-c3cccn3CC(=O)OCc3ccccc3)sc2-c2ccc(OC)cc2)cc1 [Ex. 31, benzyl 2-[4,5-bis(4-methoxyphenyl)thiazol-2-yl]pyrrole-1-acetate] |  |  | > 3000 | 0.11 | 0.16
31 | CCOCn1cccc1-c1nc(-c2ccc(OC)cc2)c(-c2ccc(OC)cc2)s1 [Ex. 36, 4,5-Bis(4-methoxyphenyl)-2-(1-ethoxymethylpyrrol-2-yl)thiazole] |  |  | > 3000 | 0.45 | 0.98
32 | CCCOCn1cccc1-c1nc(-c2ccc(OC)cc2)c(-c2ccc(OC)cc2)s1 [Ex. 37, 4,5-Bis(4-methoxyphenyl)-2-(1-n-propoxymethylpyrrol-2-yl)thiazole] |  |  | > 3000 | 0.49 | 0.61
33 | Clc1ccccc1CN1CCc2sccc2C1 [Ticlopidine.HCl, Ticlopidine hydrochloride, reference compound] |  |  |  | > 300 | 300
